In one test the target is T1, human B1R receptor (Homo sapiens, UniProt P46663).
T1 construct: host or cells: CHO K1 cells (Chinese hamster ovary), stably transfected
T1 sequence (P46663 1-353): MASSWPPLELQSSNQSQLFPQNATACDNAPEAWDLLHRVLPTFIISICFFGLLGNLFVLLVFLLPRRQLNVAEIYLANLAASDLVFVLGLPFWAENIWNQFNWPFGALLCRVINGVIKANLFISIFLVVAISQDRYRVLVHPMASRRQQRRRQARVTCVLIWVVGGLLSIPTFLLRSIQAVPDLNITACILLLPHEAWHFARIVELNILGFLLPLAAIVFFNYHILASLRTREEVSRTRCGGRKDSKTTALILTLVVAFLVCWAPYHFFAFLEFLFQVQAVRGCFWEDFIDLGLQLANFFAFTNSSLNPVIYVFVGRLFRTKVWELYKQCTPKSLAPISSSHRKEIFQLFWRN
Kind of test: Functional study on the bradykinin receptor 1 (B1R), FLIPR Ca2+ assay, hB1R cells. In kind it is cell-based. The settings on record: agonist Lys-Des-Arg9-bradykinin 0.5 nM, % inhibition compared with the maximum achievable inhibition; for inhibition at 10 µM: CHO-K1, test substance 10 μM, read-out: B1R Antagonism, human [10 μM] % Inhibition; for B1R Antagonism, human [10 μM] % Inhibition: test substance 10 μM, hB1R CHO K1 cells. Put shortly: (§1)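 Readout: peak Fluo-4 Ca2+ fluorescence, FLIPR. Stable CHO K1 hB1R or rB1R cells; cpd 10 μM, 10 min preincubation, then agonist (hB1R: Lys-Des-Arg9-BK 0.5 nM; rB1R: Des-Arg9-BK 100 nM). Value = % inhibition relative to maximal achievable inhibition.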

The target of another test is T2, B1R receptor of the rat (Rattus norvegicus, UniProt P97583).
T2 construct: host or cells: CHO K1 cells (Chinese hamster ovary), stably transfected
T2 sequence (P97583 1-337): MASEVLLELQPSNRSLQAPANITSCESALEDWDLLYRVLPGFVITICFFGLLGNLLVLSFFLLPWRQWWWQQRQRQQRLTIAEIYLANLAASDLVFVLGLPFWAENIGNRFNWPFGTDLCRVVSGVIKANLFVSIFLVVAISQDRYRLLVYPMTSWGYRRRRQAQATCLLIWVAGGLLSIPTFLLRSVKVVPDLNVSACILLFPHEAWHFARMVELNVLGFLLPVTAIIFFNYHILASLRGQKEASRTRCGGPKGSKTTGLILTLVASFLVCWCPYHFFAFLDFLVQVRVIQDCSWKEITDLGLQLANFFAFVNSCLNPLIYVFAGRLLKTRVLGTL
Description: Functional study on the bradykinin receptor 1 (B1R), FLIPR Ca2+ assay, rB1R cells. As to conditions: agonist Des-Arg9-bradykinin 100 nM, % inhibition compared with the maximum achievable inhibition; for inhibition at 10 µM: CHO-K1, test substance 10 μM, read-out: B1R Antagonism, rat [10 μM] % Inhibition; for B1R Antagonism, rat [10 μM] % Inhibition: test substance 10 μM, rB1R CHO K1 cells. In kind it is cell-based. Summed up: as §1

Where a name gives a salt, the structure may show the parent alone.

For orientation: inhibition means the relative decrease from the control value, in per cent. Take `CN1CCC(N2CCN(C(=O)COCC3CCCCN3S(=O)(=O)c3ccc4ccccc4c3)CC2)CC1` (centres unmarked) [Example 111, 1-(4-(1-methylpiperidin-4-yl)piperazin-1-yl)-2-((1-(naphthalen-2-ylsulfonyl)piperidin-2-yl)methoxy)ethanone]: the values for the inhibition at 10 µM at human B1R receptor and on B1R receptor of the rat were 91.9% and 101%, respectively.

Turning to `O=C(COCC1CCCCN1S(=O)(=O)c1cccc2ccccc12)N1CCC(N2CCCCC2)CC1` (centres unmarked) [Example 235], the “B1R Antagonism, human [10 μM] % Inhibition” value on human B1R receptor worked out at 102.3%. Besides, at B1R receptor of the rat, the “B1R Antagonism, rat [10 μM] % Inhibition” value was found to be 83.46%.

Take `O=C(COCC1CCCN1S(=O)(=O)c1c(Cl)cccc1Cl)NCc1ccc(CN2CCCC2)cc1` (centres unmarked) [Example 322, 2-((1-(2,6-dichlorophenylsulfonyl)pyrrolidin-2-yl)methoxy)-N-(4-(pyrrolidin-1-ylmethyl)benzyl)acetamide]: the inhibition at 10 µM was 102% at human B1R receptor and 98.7% on B1R receptor of the rat.

With `COc1cc(C)c(S(=O)(=O)N2CCCC2COCC(=O)N2CCN(Cc3ccc4c(c3)OCO4)CC2)c(C)c1` (centres unmarked) [Example 462, 1-(4-(benzo[d][1,3]dioxol-5-ylmethyl)piperazin-1-yl)-2-((1-(4-methoxy-2,6-dimethylphenylsulfonyl)pyrrolidin-2-yl)methoxy)ethanone], the inhibition at 10 µM was determined as 101% on human B1R receptor and 98.2% at B1R receptor of the rat.

Turning to `Cc1cc(C)c(S(=O)(=O)N2CCCCC2COCC(=O)N2CCC(N3CCCCC3)CC2)c(C)c1` (centres unmarked) [Example 225, 1-(1,4′-bipiperidin-1′-yl)-2-((1-(mesitylsulfonyl)piperidin-2-yl)methoxy)ethanone], the inhibition at 10 µM at human B1R receptor was 104%; on B1R receptor of the rat, 84.1%.

On to `Cc1cccc(Cl)c1S(=O)(=O)N1CCC[C@@H]1COCC(=O)N1CCN(C2CCN(C)CC2)CC1` [Example 152, (R)-2-((1-(2-chloro-6-methylphenylsulfonyl)pyrrolidin-2-yl)methoxy)-1-(4-(1-methylpiperidin-4-yl)piperazin-1-yl)ethanone dihydrochloride], for which the inhibition at 10 µM turned out to be 100% on human B1R receptor and 90.8% on B1R receptor of the rat.

For `COc1cc(C)c(S(=O)(=O)N2CCCC2COCC(=O)N2CCC(N3CCCC3)CC2)c(C)c1` (centres unmarked) [Example 518, 2-((1-(4-methoxy-2,6-dimethylphenylsulfonyl)pyrrolidin-2-yl)methoxy)-1-(4-(pyrrolidin-1-yl)piperidin-1-yl)ethanone], the inhibition at 10 µM at human B1R receptor was 103%; at B1R receptor of the rat it was 99.7%.

As for `O=C(COCC1CCCCN1S(=O)(=O)c1c(Cl)cccc1Cl)N1CCCC1c1cccnc1` (centres unmarked) [Example 497, 2-((1-(2,6-dichlorophenylsulfonyl)piperidin-2-yl)methoxy)-1-(2-(pyridin-3-yl)pyrrolidin-1-yl)ethanone], the results for the inhibition at 10 µM on human B1R receptor and at B1R receptor of the rat were 66% and 101%, respectively.

Take `N#CCCN1CCN(C(=O)COCC2CCCCN2S(=O)(=O)c2c(Cl)cccc2Cl)CC1` (centres unmarked) [Example 506, 3-(4-(2-((1-(2,6-dichlorophenylsulfonyl)piperidin-2-yl)methoxy)acetyl)piperazin-1-yl)propanenitrile]: the inhibition at 10 µM at human B1R receptor worked out at 98.3%; at B1R receptor of the rat, 98.9%.

Consider `COc1cc(C)c(S(=O)(=O)N2CCCC2COCC(=O)N2CCN(c3ccc(C(F)(F)F)cn3)CC2)c(C)c1` (centres unmarked) [Example 468, 2-((1-(4-methoxy-2,6-dimethylphenylsulfonyl)pyrrolidin-2-yl)methoxy)-1-(4-(5-(trifluoromethyl)pyridin-2-yl)piperazin-1-yl)ethanone], for which the results for the inhibition at 10 µM on human B1R receptor and at B1R receptor of the rat were 84.5% and 101%, respectively.

On to `COc1cc(C)c(S(=O)(=O)N2CCCC2COCC(=O)N2CCCN(C)CC2)c(C)c1` (centres unmarked) [Example 467, 2-((1-(4-methoxy-2,6-dimethylphenylsulfonyl)pyrrolidin-2-yl)methoxy)-1-(4-methyl-1,4-diazepan-1-yl)ethanone], for which the inhibition at 10 µM at human B1R receptor and at B1R receptor of the rat was 101% each time.

For the molecule `O=C(COCC1CCCCN1S(=O)(=O)c1c(Cl)cccc1Cl)N1CCN(Cc2ccccc2)CC1` (centres unmarked) [Example 480, 1-(4-benzylpiperazin-1-yl)-2-((1-(2,6-dichlorophenylsulfonyl)piperidin-2-yl)methoxy)ethanone], the figures for the inhibition at 10 µM at human B1R receptor and at B1R receptor of the rat were 101% and 103%, respectively.

For the molecule `COc1cc(C)c(S(=O)(=O)N2CCCCC2COCC(=O)N2CCOC(c3cccnc3)C2)c(C)c1` (centres unmarked) [Example 207, 2-((1-(4-methoxy-2,6-dimethylphenylsulfonyl)piperidin-2-yl)methoxy)-1-(2-(pyridin-3-yl)morpholin)ethanone], the “B1R Antagonism, human [10 μM] % Inhibition” value on human B1R receptor was found to be 101.93%. Further, at B1R receptor of the rat, the “B1R Antagonism, rat [10 μM] % Inhibition” value was 100.16%.

As to `COc1cc(C)c(S(=O)(=O)N2CCCCC2COCC(=O)N(Cc2ccccc2)c2cc(C)ccn2)c(C)c1` (centres unmarked) [Example 507, N-benzyl-2-((1-(4-methoxy-2,6-dimethylphenylsulfonyl)piperidin-2-yl)methoxy)-N-(4-methylpyridin-2-yl)acetamide], the inhibition at 10 µM is -10.1% at human B1R receptor and 102% at B1R receptor of the rat.

Regarding `O=C(COCC1CCCCN1S(=O)(=O)c1c(Cl)cccc1Cl)N1CCN(CCc2ccccc2)CC1` (centres unmarked) [Example 320, 2-((1-(2,6-dichlorophenylsulfonyl)piperidin-2-yl)methoxy)-1-(4-phenethylpiperazin-1-yl)ethanone], the results for the inhibition at 10 µM at human B1R receptor and at B1R receptor of the rat were 106% and 102%, respectively.

`COc1cc(C)c(S(=O)(=O)N2Cc3ccccc3C[C@H]2COCC(=O)N2CCN(CC3CCN(C)CC3)CC2)c(C)c1` [Example 185, (S)-2-((2-(4-methoxy-2,6-dimethylphenylsulfonyl)-1,2,3,4-tetrahydroisoquinolin-3-yl)methoxy)-1-(4-((1-methylpiperidin-4-yl)methyl)piperazin-1-yl)ethanone]: the inhibition at 10 µM worked out at 105% at human B1R receptor and 97.9% on B1R receptor of the rat.

With `COc1cc(C)c(S(=O)(=O)N2CCCCC2COCC(=O)NCc2ccc(CN3CCCCC3)cc2)c(C)c1` (centres unmarked) [Example 2, 2-[1-(4-methoxy-2,6-dimethyl-phenylsulfonyl)-piperidin-2-ylmethoxy]-N-(4-piperidin-1-ylmethyl-benzyl)-acetamide], the inhibition at 10 µM on human B1R receptor was determined as 104%; at B1R receptor of the rat, 87.4%.

With `O=C(COCC1CCCCN1S(=O)(=O)c1cccc(C(F)(F)F)c1)N1CCCCC1c1cncc(Br)c1` (centres unmarked) [Example 224, 1-(2-(5-bromopyridin-3-yl)piperidin-1-yl)-2-((1-(3-(trifluoromethyl)phenylsulfonyl)piperidin-2-yl)methoxy)ethanone], the inhibition at 10 µM at human B1R receptor stood at 72.1%; at B1R receptor of the rat, 52.8%.

For `O=C(COCC1CCCCN1S(=O)(=O)c1c(Cl)cccc1Cl)N1CCN(CCO)CC1` (centres unmarked) [Example 552, 2-((1-(2,6-dichlorophenylsulfonyl)piperidin-2-yl)methoxy)-1-(4-(2-hydroxyethyl)piperazin-1-yl)ethanone], the figures for the inhibition at 10 µM at human B1R receptor and on B1R receptor of the rat were 46.8% and 101%, respectively.

As to `COc1cc(C)c(S(=O)(=O)N2CCCCC2COCC(=O)Nc2ccc(-n3ccnc3C)cc2)c(C)c1` (centres unmarked) [Example 427, 2-((1-(4-methoxy-2,6-dimethylphenylsulfonyl)piperidin-2-yl)methoxy)-N-(4-(2-methyl-1H-imidazol-1-yl)phenyl)acetamide], the inhibition at 10 µM worked out at 102% on human B1R receptor and 98.8% at B1R receptor of the rat.

For `COc1cc(C)c(S(=O)(=O)N2CCCC2COCC(=O)N2CCN(c3ncc(C(F)(F)F)cc3Cl)CC2)c(C)c1` (centres unmarked) [Example 469, 1-(4-(3-chloro-5-(trifluoromethyl)pyridin-2-yl)piperazin-1-yl)-2-((1-(4-methoxy-2,6-dimethylphenylsulfonyl)pyrrolidin-2-yl)methoxy)ethanone], the inhibition at 10 µM at human B1R receptor came out at 92.3%; at B1R receptor of the rat, 102%.

For the molecule `O=C(COCC1CCCCN1S(=O)(=O)c1c(Cl)cccc1Cl)N1CCN(Cc2ccc(Cl)cc2)CC1` (centres unmarked) [Example 407, 1-(4-(4-chlorobenzyl)piperazin-1-yl)-2-((1-(2,6-dichlorophenylsulfonyl)piperidin-2-yl)methoxy)ethanone], the inhibition at 10 µM at human B1R receptor came out at 102%; at B1R receptor of the rat, 99%.

The record behind these values is patent US8435978B2, “Substituted sulfonamide compounds” (Gruenenthal GmbH, priority 2006, dated 2013).
